Results as given in patent publication US6358885B1, “Substituted phenylheterocyclic herbicides” (Mississippi State University, priority 1992, dated 2002).

Assays:
Experiment in all cases: Test B preemergence/postemergence greenhouse plant response rating 0 to 10
cheatgrass = format: in vivo, Bromus secalinus; details: for Plant response rating, Cheatgrass: 0 to 10 scale
In short: (§1)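 Postemergence treatment of plants two to eighteen cm tall ran alongside preemergence treatment of planted seed, each using compound in a non-phytotoxic solvent.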

cocklebur = format: in vivo, Xanthium pensylvanicum; details: for Plant response rating, Cocklebur: 0 to 10 scale
In short: as §1

morningglory = format: in vivo, Ipomoea hederacea; details: 0 to 10 scale
In short: as §1

giant foxtail = format: in vivo, Setaria faberii; details: 0 to 10 scale
In short: as §1

soybean = format: in vivo, Glycine max; details: 0 to 10 scale
In short: as §1

velvetleaf = format: in vivo, Abutilon theophrasti; details: 0 to 10 scale
In short: as §1

lambsquarters = format: in vivo, Chenopodium album; details: 0 to 10 scale
In short: as §1

barley = format: in vivo, Hordeum vulgare; details: for Plant response rating, Barley: 0 to 10 scale
In short: as §1

bedstraw = format: in vivo, Galium aparine; details: for Plant response rating, Bedstraw: 0 to 10 scale
In short: as §1

Structure (SMILES)	Plant response rating (0 to 10 scale), Cheatgrass (cheatgrass; POSTEMERGENCE, Rate 50 g/ha)	Plant response rating, Cheatgrass (cheatgrass; POSTEMERGENCE, Rate 200 g/ha)	Plant response rating, Cheatgrass (cheatgrass; PREEMERGENCE, Rate 50 g/ha)	Plant response rating, Cheatgrass (cheatgrass; Rate 200 g/ha, PREEMERGENCE)	Plant response rating (0 to 10 scale), Cocklebur (cocklebur; POSTEMERGENCE, Rate 50 g/ha)	Plant response rating, Cocklebur (cocklebur; POSTEMERGENCE, Rate 200 g/ha)	Plant response rating, Cocklebur (cocklebur; PREEMERGENCE, Rate 50 g/ha)	Plant response rating, Cocklebur (cocklebur; Rate 200 g/ha, PREEMERGENCE)	Plant response rating, Morningglory (morningglory; POSTEMERGENCE, Rate 50 g/ha)	Plant response rating, Morningglory (morningglory; POSTEMERGENCE, Rate 200 g/ha)	Plant response rating, Morningglory (morningglory; PREEMERGENCE, Rate 50 g/ha)	Plant response rating, Morningglory (morningglory; Rate 200 g/ha, PREEMERGENCE)	Plant response rating, Giant foxtail (giant foxtail; POSTEMERGENCE, Rate 50 g/ha)	Plant response rating, Giant foxtail (giant foxtail; POSTEMERGENCE, Rate 200 g/ha)	Plant response rating, Giant foxtail (giant foxtail; PREEMERGENCE, Rate 50 g/ha)	Plant response rating, Giant foxtail (giant foxtail; Rate 200 g/ha, PREEMERGENCE)	Plant response rating, Soybean (soybean; POSTEMERGENCE, Rate 50 g/ha)	Plant response rating, Soybean (soybean; POSTEMERGENCE, Rate 200 g/ha)	Plant response rating, Soybean (soybean; PREEMERGENCE, Rate 50 g/ha)	Plant response rating, Soybean (soybean; Rate 200 g/ha, PREEMERGENCE)	other results
CCCOc1cc(-c2nn3c(c2Cl)CCCC3)c(F)cc1Cl [Compound 23]	6	8	4	6	8	10	0	8	8	10	3	8	5	7	6	9	8	9	1	7	Plant response rating, Velvetleaf (velvetleaf; POSTEMERGENCE, Rate 50 g/ha): 9; Plant response rating, Velvetleaf (velvetleaf; POSTEMERGENCE, Rate 200 g/ha): 10; Plant response rating, Velvetleaf (velvetleaf; PREEMERGENCE, Rate 50 g/ha): 1; Plant response rating, Velvetleaf (velvetleaf; Rate 200 g/ha, PREEMERGENCE): 10; Plant response rating, Lambsquarter (lambsquarters; POSTEMERGENCE, Rate 50 g/ha): 10; Plant response rating, Lambsquarter (lambsquarters; POSTEMERGENCE, Rate 200 g/ha): 10; Plant response rating, Lambsquarter (lambsquarters; PREEMERGENCE, Rate 50 g/ha): 10; Plant response rating, Lambsquarter (lambsquarters; Rate 200 g/ha, PREEMERGENCE): 10; Plant response rating (0 to 10 scale), Barley (barley; POSTEMERGENCE, Rate 50 g/ha): 3; Plant response rating, Barley (barley; POSTEMERGENCE, Rate 200 g/ha): 3; Plant response rating, Barley (barley; PREEMERGENCE, Rate 50 g/ha): 0; Plant response rating, Barley (barley; Rate 200 g/ha, PREEMERGENCE): 0; Plant response rating (0 to 10 scale), Bedstraw (bedstraw; POSTEMERGENCE, Rate 50 g/ha): 7; Plant response rating, Bedstraw (bedstraw; POSTEMERGENCE, Rate 200 g/ha): 9; Plant response rating, Bedstraw (bedstraw; PREEMERGENCE, Rate 50 g/ha): 5; Plant response rating, Bedstraw (bedstraw; Rate 200 g/ha, PREEMERGENCE): 5
Fc1cc(Cl)c(OCc2ccccc2)cc1-c1nn2c(c1Cl)CCCC2 [Compound 22]	3	4	0	3	7	8	0	1	5	9	2	2	3	4	3	9	5	6	0	2	Plant response rating, Velvetleaf (velvetleaf; POSTEMERGENCE, Rate 50 g/ha): 6; Plant response rating, Velvetleaf (velvetleaf; POSTEMERGENCE, Rate 200 g/ha): 9; Plant response rating, Velvetleaf (velvetleaf; PREEMERGENCE, Rate 50 g/ha): 4; Plant response rating, Velvetleaf (velvetleaf; Rate 200 g/ha, PREEMERGENCE): 5; Plant response rating, Lambsquarter (lambsquarters; POSTEMERGENCE, Rate 50 g/ha): 8; Plant response rating, Lambsquarter (lambsquarters; POSTEMERGENCE, Rate 200 g/ha): 10; Plant response rating, Lambsquarter (lambsquarters; PREEMERGENCE, Rate 50 g/ha): 6; Plant response rating, Lambsquarter (lambsquarters; Rate 200 g/ha, PREEMERGENCE): 9; Plant response rating (0 to 10 scale), Barley (barley; POSTEMERGENCE, Rate 50 g/ha): 4; Plant response rating, Barley (barley; POSTEMERGENCE, Rate 200 g/ha): 5; Plant response rating, Barley (barley; PREEMERGENCE, Rate 50 g/ha): 0; Plant response rating, Barley (barley; Rate 200 g/ha, PREEMERGENCE): 0; Plant response rating (0 to 10 scale), Bedstraw (bedstraw; POSTEMERGENCE, Rate 50 g/ha): 8; Plant response rating, Bedstraw (bedstraw; POSTEMERGENCE, Rate 200 g/ha): 8; Plant response rating, Bedstraw (bedstraw; Rate 200 g/ha, PREEMERGENCE): 10
Clc1ccc(-c2nc3n(c2Cl)CCC=C3)c(Cl)c1 [Compound 1]	2	2	0	0	4	4	0	0	6	7	0	0	3	3	0	0	4	4	0	0	Plant response rating, Velvetleaf (velvetleaf; POSTEMERGENCE, Rate 50 g/ha): 3; Plant response rating, Velvetleaf (velvetleaf; POSTEMERGENCE, Rate 200 g/ha): 8; Plant response rating, Velvetleaf (velvetleaf; PREEMERGENCE, Rate 50 g/ha): 0; Plant response rating, Velvetleaf (velvetleaf; Rate 200 g/ha, PREEMERGENCE): 0; Plant response rating, Lambsquarter (lambsquarters; POSTEMERGENCE, Rate 50 g/ha): 4; Plant response rating, Lambsquarter (lambsquarters; POSTEMERGENCE, Rate 200 g/ha): 7; Plant response rating, Lambsquarter (lambsquarters; PREEMERGENCE, Rate 50 g/ha): 0; Plant response rating, Lambsquarter (lambsquarters; Rate 200 g/ha, PREEMERGENCE): 0; Plant response rating (0 to 10 scale), Barley (barley; POSTEMERGENCE, Rate 50 g/ha): 3; Plant response rating, Barley (barley; POSTEMERGENCE, Rate 200 g/ha): 3; Plant response rating, Barley (barley; PREEMERGENCE, Rate 50 g/ha): 0; Plant response rating, Barley (barley; Rate 200 g/ha, PREEMERGENCE): 0; Plant response rating (0 to 10 scale), Bedstraw (bedstraw; POSTEMERGENCE, Rate 50 g/ha): 3; Plant response rating, Bedstraw (bedstraw; POSTEMERGENCE, Rate 200 g/ha): 3; Plant response rating, Bedstraw (bedstraw; PREEMERGENCE, Rate 50 g/ha): 0; Plant response rating, Bedstraw (bedstraw; Rate 200 g/ha, PREEMERGENCE): 0
Fc1cc(Cl)c(OC2CCCC2)cc1-c1nn2c(c1Cl)CCCC2 [Compound 24]	3	5	0	4	8	9	0	1	9	8	1	5	4	5	3	8	6	8	0	2	Plant response rating, Velvetleaf (velvetleaf; POSTEMERGENCE, Rate 50 g/ha): 10; Plant response rating, Velvetleaf (velvetleaf; POSTEMERGENCE, Rate 200 g/ha): 10; Plant response rating, Velvetleaf (velvetleaf; PREEMERGENCE, Rate 50 g/ha): 1; Plant response rating, Velvetleaf (velvetleaf; Rate 200 g/ha, PREEMERGENCE): 9; Plant response rating, Lambsquarter (lambsquarters; POSTEMERGENCE, Rate 50 g/ha): 9; Plant response rating, Lambsquarter (lambsquarters; POSTEMERGENCE, Rate 200 g/ha): 10; Plant response rating, Lambsquarter (lambsquarters; PREEMERGENCE, Rate 50 g/ha): 9; Plant response rating, Lambsquarter (lambsquarters; Rate 200 g/ha, PREEMERGENCE): 10; Plant response rating (0 to 10 scale), Barley (barley; POSTEMERGENCE, Rate 50 g/ha): 4; Plant response rating, Barley (barley; POSTEMERGENCE, Rate 200 g/ha): 4; Plant response rating, Barley (barley; PREEMERGENCE, Rate 50 g/ha): 0; Plant response rating, Barley (barley; Rate 200 g/ha, PREEMERGENCE): 0; Plant response rating (0 to 10 scale), Bedstraw (bedstraw; POSTEMERGENCE, Rate 50 g/ha): 6; Plant response rating, Bedstraw (bedstraw; POSTEMERGENCE, Rate 200 g/ha): 7; Plant response rating, Bedstraw (bedstraw; PREEMERGENCE, Rate 50 g/ha): 3; Plant response rating, Bedstraw (bedstraw; Rate 200 g/ha, PREEMERGENCE): 5
CC(C)Oc1cc(-c2nn3c(c2Cl)CCCC3)c(F)cc1Cl [Compound 21]	5	8	4	6	8	10	2	2	10	9	2	2	4	7	5	9	9	9	0	2	Plant response rating, Velvetleaf (velvetleaf; POSTEMERGENCE, Rate 50 g/ha): 10; Plant response rating, Velvetleaf (velvetleaf; POSTEMERGENCE, Rate 200 g/ha): 9; Plant response rating, Velvetleaf (velvetleaf; PREEMERGENCE, Rate 50 g/ha): 1; Plant response rating, Velvetleaf (velvetleaf; Rate 200 g/ha, PREEMERGENCE): 10; Plant response rating, Lambsquarter (lambsquarters; POSTEMERGENCE, Rate 50 g/ha): 10; Plant response rating, Lambsquarter (lambsquarters; POSTEMERGENCE, Rate 200 g/ha): 10; Plant response rating, Lambsquarter (lambsquarters; PREEMERGENCE, Rate 50 g/ha): 10; Plant response rating, Lambsquarter (lambsquarters; Rate 200 g/ha, PREEMERGENCE): 10; Plant response rating (0 to 10 scale), Barley (barley; POSTEMERGENCE, Rate 50 g/ha): 6; Plant response rating, Barley (barley; POSTEMERGENCE, Rate 200 g/ha): 4; Plant response rating, Barley (barley; PREEMERGENCE, Rate 50 g/ha): 0; Plant response rating, Barley (barley; Rate 200 g/ha, PREEMERGENCE): 2; Plant response rating (0 to 10 scale), Bedstraw (bedstraw; POSTEMERGENCE, Rate 50 g/ha): 6; Plant response rating, Bedstraw (bedstraw; POSTEMERGENCE, Rate 200 g/ha): 9; Plant response rating, Bedstraw (bedstraw; PREEMERGENCE, Rate 50 g/ha): 2; Plant response rating, Bedstraw (bedstraw; Rate 200 g/ha, PREEMERGENCE): 9
